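Dose response: 5 concentrations. Exposure: 48 h. Format: 96-well plates. Endpoint: linear interpolation; highest concentration if not reached. At the GI50, growth is halved. TGI: concentration producing complete growth inhibition.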 Where a SMILES comes first, the peptide text is derived from it. The star is where a group is joined. Palmitoyl = CCCCCCCCCCCCCCCC(=O)*

Some test systems named below: M14 melanoma; OVCAR-4 ovarian; SK-MEL-2 melanoma; SW-620 colon; NCI-H460 lung; OVCAR-3 ovarian; SN12C renal; SNB-19 CNS; CCRF-CEM leukemia; SK-OV-3 ovarian.
Common to all, as to assay: NCI anticancer screen, dose series, 48 h

Regarding `O=C(/C=C/c1ccc(Oc2cc(C(=O)/C=C/c3ccc(O)cc3)c(O)cc2O)cc1)c1ccc(O)cc1O`, the TGI in the assay on M14 melanoma worked out at 24.1 µM; in the assay on OVCAR-4 ovarian, 28.3 µM; in the assay on SK-MEL-2 melanoma, 28.2 µM; in the assay with SW-620 colon, 19.8 µM; in the assay on NCI-H460 lung it was 29.8 µM; in the assay on OVCAR-3 ovarian it was 11.9 µM. In addition, the TGI in the assay on SN12C renal turned out to be 17 µM; in the assay with SNB-19 CNS it was 30.9 µM; in the assay with CCRF-CEM leukemia, 10.8 µM; in the assay on SK-OV-3 ovarian, 8.88 µM.
Take `CON(C)c1nc(N(C)OC)nc(N(C)OC)n1`: the TGI with M14 melanoma, with OVCAR-4 ovarian, with SK-MEL-2 melanoma, in the assay with SW-620 colon, in the assay with NCI-H460 lung and with OVCAR-3 ovarian was more than 10 µM each time. Further, the TGI in the assay on SN12C renal, in the assay with SNB-19 CNS, with CCRF-CEM leukemia and in the assay on SK-OV-3 ovarian was more than 10 µM each time.
In the case of `O=c1c2cc(S(=O)(=O)O)ccc2nc(COc2ccc(Oc3ccc(Cl)cc3Cl)cc2)n1-c1ccc(Oc2ccc(Cl)cc2)cc1Cl`, the TGI in the assay on M14 melanoma was found to be 39.9 µM; in the assay with OVCAR-4 ovarian, 73.6 µM; in the assay with SK-MEL-2 melanoma, 32.2 µM; in the assay with SW-620 colon it was 50.4 µM; in the assay with NCI-H460 lung, 32.8 µM; in the assay on OVCAR-3 ovarian it was 36.9 µM. The TGI was 32.9 µM with SN12C renal, 67.7 µM in the assay on SNB-19 CNS, more than 100 µM with CCRF-CEM leukemia and 49.2 µM with SK-OV-3 ovarian.
On to `Cn1c(-c2ccccc2)cc(-c2cccs2)c1-c1cccs1`, for which the TGI in the assay with OVCAR-4 ovarian, with SK-MEL-2 melanoma, with SW-620 colon, in the assay with NCI-H460 lung, in the assay on OVCAR-3 ovarian and in the assay with SN12C renal was more than 100 µM throughout. Moreover, the TGI in the assay with SNB-19 CNS, in the assay on CCRF-CEM leukemia and in the assay on SK-OV-3 ovarian was more than 100 µM in each case.
Take `Cc1cc(C)nc(NS(=O)(=O)c2ccc(NC(=O)c3cccc4c(Nc5ccc(S(=O)(=O)Nc6cc(C)on6)cc5)c5ccccc5nc34)cc2)n1`: the TGI in the assay with M14 melanoma is 47.5 µM; in the assay with OVCAR-4 ovarian, 50.2 µM; in the assay on SK-MEL-2 melanoma, 40 µM; in the assay on NCI-H460 lung, 59.9 µM; with OVCAR-3 ovarian, 38.9 µM; in the assay with SN12C renal it was 61.8 µM. Also, the values for the TGI in the assay with SNB-19 CNS, in the assay with CCRF-CEM leukemia and in the assay with SK-OV-3 ovarian were 46.7 µM, 75.7 µM and 75.2 µM, respectively.
`CC(C)C(C(=O)O)N1C(=O)c2ccccc2C1=O` (stereo not given): the TGI in the assay on M14 melanoma is more than 100 µM; with OVCAR-4 ovarian, more than 100 µM; with SK-MEL-2 melanoma, 0.612 µM; in the assay with SW-620 colon, more than 100 µM; with NCI-H460 lung, more than 100 µM; with OVCAR-3 ovarian, more than 100 µM. Besides, the TGI in the assay with SN12C renal, with SNB-19 CNS, with CCRF-CEM leukemia and in the assay on SK-OV-3 ovarian was more than 100 µM throughout.
For `COC(=O)c1c(C)n([O-])c2cc(Cl)c(Cl)cc2[n+]1=O`, the TGI with M14 melanoma was 76.6 µM; with OVCAR-4 ovarian, 52.5 µM; with SK-MEL-2 melanoma, 82.1 µM; in the assay with SW-620 colon, more than 100 µM; in the assay with NCI-H460 lung it was 29.2 µM; with OVCAR-3 ovarian, 52.4 µM. The TGI in the assay on SN12C renal was 84 µM; in the assay on SNB-19 CNS, more than 100 µM; in the assay on CCRF-CEM leukemia, 42.3 µM; in the assay with SK-OV-3 ovarian, 40 µM.
Turning to `CC12C=CC(=O)C=C1CCC1C3CCC(O)(C(=O)CO)C3(C)CC(O)C12F` (stereo not given), the TGI in the assay with M14 melanoma, with OVCAR-4 ovarian, with SK-MEL-2 melanoma, in the assay with SW-620 colon, with NCI-H460 lung and in the assay on OVCAR-3 ovarian was more than 100 µM throughout. The TGI in the assay with SN12C renal, in the assay with SNB-19 CNS, in the assay with CCRF-CEM leukemia and with SK-OV-3 ovarian was more than 100 µM throughout.
On to `C[N+](C)(C)c1ncnc2c1ncn2C1CC(O)C(CO)O1` (stereo not given), for which the TGI in the assay with M14 melanoma, with OVCAR-4 ovarian, in the assay on SK-MEL-2 melanoma, in the assay on SW-620 colon, in the assay on NCI-H460 lung and in the assay with OVCAR-3 ovarian was more than 100 µM in each case. The TGI in the assay with SN12C renal, with SNB-19 CNS, in the assay on CCRF-CEM leukemia and in the assay with SK-OV-3 ovarian was more than 100 µM throughout.
Regarding `CCCC1CCC(=C2C(=O)CCC2=O)O1` (stereo not given), the TGI with M14 melanoma, in the assay on OVCAR-4 ovarian, with SK-MEL-2 melanoma, with SW-620 colon, in the assay with NCI-H460 lung and in the assay on OVCAR-3 ovarian was more than 100 µM in each case. The TGI with SN12C renal, in the assay with SNB-19 CNS, with CCRF-CEM leukemia and with SK-OV-3 ovarian was more than 100 µM in each case.
With `COC(=O)C1=C(OC(=O)/C(=C/c2ccc(Cl)cc2)c2ccc(Cl)cc2)C(C(=O)OC)[C@]2(O)[C@@H](C(=O)OC)[C@H]1C[C@@H](c1ccccc1)[C@@H]2C(=O)OC` (stereo not given in full), the TGI in the assay with M14 melanoma, with OVCAR-4 ovarian, with SK-MEL-2 melanoma, with SW-620 colon, with NCI-H460 lung and with OVCAR-3 ovarian was more than 100 µM in each case. Moreover, the TGI with SN12C renal, with SNB-19 CNS and in the assay with SK-OV-3 ovarian was more than 100 µM in each case.
Turning to `CC(N)Cc1ccc(Cl)c(Cl)c1` (stereo not given), the TGI is 33.9 µM in the assay on M14 melanoma; more than 100 µM in the assay with OVCAR-4 ovarian; 37.6 µM in the assay on SK-MEL-2 melanoma; 51.8 µM in the assay with SW-620 colon; 97.1 µM with NCI-H460 lung; more than 100 µM in the assay with OVCAR-3 ovarian. Besides, the TGI in the assay with SN12C renal was more than 74 µM; with SNB-19 CNS, more than 100 µM; with CCRF-CEM leukemia, more than 78.1 µM; in the assay with SK-OV-3 ovarian it was more than 100 µM.
Take `CCCCCCCCCCCCCCCC(=O)N1CCCC1C(=O)NCC(=O)NC(Cc1ccccc1)C(=O)NC(C)C(=O)NC(CO)C(=O)NC(Cc1ccc(O)cc1)C(=O)NC(CCCCN)C(=O)NC(CC(C)C)C(=O)NC(CCCN=C(N)N)C(=O)N1CCCC1C(=O)NCC(N)=O` (stereo not given) (Palmitoyl-PGFASYKLRPG-NH2; configuration not given here): the GI50 in the assay on M14 melanoma is 16.8 µM; in the assay on OVCAR-4 ovarian it was 33.8 µM; in the assay on SK-MEL-2 melanoma it was 34.6 µM; in the assay with SW-620 colon, 37.5 µM; with NCI-H460 lung it was 23.5 µM; in the assay with OVCAR-3 ovarian it was 24.2 µM. The GI50 was 18.4 µM in the assay with SNB-19 CNS, 16.5 µM in the assay with CCRF-CEM leukemia and 12.8 µM in the assay on SK-OV-3 ovarian. The TGI is 35.3 µM in the assay with M14 melanoma; 92.6 µM with OVCAR-4 ovarian; more than 100 µM in the assay on SK-MEL-2 melanoma; more than 100 µM with SW-620 colon; 61.4 µM in the assay on NCI-H460 lung; 56.6 µM in the assay on OVCAR-3 ovarian. Moreover, the TGI came to 39.7 µM in the assay with SNB-19 CNS, 30.1 µM with CCRF-CEM leukemia and 28.7 µM with SK-OV-3 ovarian.
